Measured values taken from PubChem BioAssay (NCI).
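The concentration for 50% growth inhibition is given as GI50. At the TGI there is no net growth.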

Columns and labels:
Test in all cases: DTP human tumour cell line panel, 384-well format
MDA-MB-231 breast = system: MDA-MB-231 breast
A498 renal = system: A498 renal
A549 NSCLC = system: A549 NSCLC
BT-549 breast = system: BT-549 breast
IGROV1 ovarian = system: IGROV1 ovarian
UO-31 renal = system: UO-31 renal
OVCAR-5 ovarian = system: OVCAR-5 ovarian
RPMI-8226 leukemia = system: RPMI-8226 leukemia
ACHN renal = system: ACHN renal
HL-60(TB) leukemia = system: HL-60(TB) leukemia
LOX IMVI melanoma = system: LOX IMVI melanoma
SF-295 CNS = system: SF-295 CNS
HCT-116 colon = system: HCT-116 colon
CAKI-1 renal = system: CAKI-1 renal
DU-145 prostate = system: DU-145 prostate
MDA-MB-435 melanoma = system: MDA-MB-435 melanoma
HS 578T breast = system: HS 578T breast
SK-MEL-28 melanoma = system: SK-MEL-28 melanoma
786-0 renal = system: 786-0 renal
MDA-MB-468 breast = system: MDA-MB-468 breast
OVCAR-4 ovarian = system: OVCAR-4 ovarian
U251 glioblastoma = system: U251 glioblastoma
SNB-75 CNS = system: SNB-75 CNS
MALME-3M melanoma = system: MALME-3M melanoma
HOP-92 NSCLC = system: HOP-92 NSCLC
TK-10 renal = system: TK-10 renal
UACC-62 melanoma = system: UACC-62 melanoma
SF-539 CNS = system: SF-539 CNS
K-562 leukemia = system: K-562 leukemia
SW-620 colon = system: SW-620 colon
MCF7 breast = system: MCF7 breast
T-47D breast = system: T-47D breast
CCRF-CEM leukemia = system: CCRF-CEM leukemia
NCI/ADR-RES ovarian = system: NCI/ADR-RES ovarian
NCI-H522 lung = system: NCI-H522 lung
NCI-H226 lung = system: NCI-H226 lung
OVCAR-8 ovarian = system: OVCAR-8 ovarian
NCI-H23 lung = system: NCI-H23 lung
M14 melanoma = system: M14 melanoma
SNB-19 CNS = system: SNB-19 CNS
PC-3 prostate = system: PC-3 prostate
RXF 393 renal = system: RXF 393 renal
SN12C renal = system: SN12C renal
KM12 colon = system: KM12 colon
HOP-62 NSCLC = system: HOP-62 NSCLC
MOLT-4 leukemia = system: MOLT-4 leukemia
SF-268 CNS = system: SF-268 CNS
SK-OV-3 ovarian = system: SK-OV-3 ovarian
EKVX NSCLC = system: EKVX NSCLC
OVCAR-3 ovarian = system: OVCAR-3 ovarian
HCT-15 colon = system: HCT-15 colon
HT29 colon = system: HT29 colon
NCI-H322M lung = system: NCI-H322M lung
UACC-257 melanoma = system: UACC-257 melanoma
SK-MEL-2 melanoma = system: SK-MEL-2 melanoma

## O=C1CCC(N2C(=O)c3ccccc3C2=O)C(=O)N1 (stereo not given)
MDA-MB-231 breast
  GI50: > 100 µM
  TGI: > 100 µM
A498 renal
  GI50: > 100 µM
  TGI: > 100 µM
A549 NSCLC
  GI50: > 100 µM
  TGI: > 100 µM
BT-549 breast
  GI50: > 100 µM
  TGI: > 100 µM
IGROV1 ovarian
  GI50: > 100 µM
  TGI: > 100 µM
UO-31 renal
  GI50: > 100 µM
  TGI: > 100 µM
OVCAR-5 ovarian
  GI50: > 100 µM
  TGI: > 100 µM
RPMI-8226 leukemia
  GI50: > 100 µM
  TGI: > 100 µM
ACHN renal
  GI50: > 100 µM
  TGI: > 100 µM
HL-60(TB) leukemia
  GI50: > 100 µM
  TGI: > 100 µM
LOX IMVI melanoma
  GI50: > 100 µM
  TGI: > 100 µM
SF-295 CNS
  GI50: > 100 µM
  TGI: > 100 µM
HCT-116 colon
  GI50: > 100 µM
  TGI: > 100 µM
CAKI-1 renal
  GI50: > 100 µM
  TGI: > 100 µM
DU-145 prostate
  GI50: > 100 µM
  TGI: > 100 µM
MDA-MB-435 melanoma
  GI50: > 100 µM
  TGI: > 100 µM
HS 578T breast
  GI50: > 100 µM
  TGI: > 100 µM
SK-MEL-28 melanoma
  GI50: > 100 µM
  TGI: > 100 µM
786-0 renal
  GI50: > 100 µM
  TGI: > 100 µM
MDA-MB-468 breast
  GI50: > 100 µM
  TGI: > 100 µM
OVCAR-4 ovarian
  GI50: > 100 µM
  TGI: > 100 µM
U251 glioblastoma
  GI50: > 100 µM
  TGI: > 100 µM
SNB-75 CNS
  GI50: > 100 µM
  TGI: > 100 µM
MALME-3M melanoma
  GI50: > 100 µM
  TGI: > 100 µM
HOP-92 NSCLC
  GI50: > 100 µM
  TGI: > 100 µM
TK-10 renal
  GI50: > 100 µM
  TGI: > 100 µM
UACC-62 melanoma
  GI50: > 100 µM
  TGI: > 100 µM
SF-539 CNS
  GI50: > 100 µM
  TGI: > 100 µM
K-562 leukemia
  GI50: > 100 µM
  TGI: > 100 µM
SW-620 colon
  GI50: > 100 µM
  TGI: > 100 µM
MCF7 breast
  GI50: > 100 µM
  TGI: > 100 µM
T-47D breast
  GI50: > 100 µM
  TGI: > 100 µM
CCRF-CEM leukemia
  GI50: > 100 µM
  TGI: > 100 µM
NCI/ADR-RES ovarian
  GI50: > 100 µM
  TGI: > 100 µM
NCI-H522 lung
  GI50: > 100 µM
  TGI: > 100 µM
NCI-H226 lung
  GI50: > 100 µM
  TGI: > 100 µM
OVCAR-8 ovarian
  GI50: > 100 µM
  TGI: > 100 µM
NCI-H23 lung
  GI50: > 100 µM
  TGI: > 100 µM
M14 melanoma
  GI50: > 100 µM
  TGI: > 100 µM
SNB-19 CNS
  GI50: > 100 µM
  TGI: > 100 µM
PC-3 prostate
  GI50: > 100 µM
  TGI: > 100 µM
RXF 393 renal
  GI50: > 100 µM
  TGI: > 100 µM
SN12C renal
  GI50: > 100 µM
  TGI: > 100 µM
KM12 colon
  GI50: > 100 µM
  TGI: > 100 µM
HOP-62 NSCLC
  GI50: > 100 µM
  TGI: > 100 µM
MOLT-4 leukemia
  GI50: > 100 µM
  TGI: > 100 µM
SF-268 CNS
  GI50: > 100 µM
  TGI: > 100 µM
SK-OV-3 ovarian
  GI50: > 100 µM
  TGI: > 100 µM
EKVX NSCLC
  GI50: > 100 µM
  TGI: > 100 µM
OVCAR-3 ovarian
  GI50: > 100 µM
  TGI: > 100 µM
HCT-15 colon
  GI50: > 100 µM
  TGI: > 100 µM
HT29 colon
  GI50: > 100 µM
  TGI: > 100 µM
NCI-H322M lung
  GI50: > 100 µM
  TGI: > 100 µM
UACC-257 melanoma
  GI50: > 100 µM
  TGI: > 100 µM
SK-MEL-2 melanoma
  GI50: > 100 µM
  TGI: > 100 µM
